Measured values as given in ChEMBL document CHEMBL3301361, “Experimental in vitro DMPK and physicochemical data on a set of publicly disclosed compounds”.
Converted amounts (≈) assume the structure as drawn.

What was measured:
physchem [1] = conditions: octan-1-ol/water
in vitro = conditions: SD, HW or BN, rat, plasma
physchem [2] = conditions: pH 7.4 buffer

| Structure (SMILES) | fraction unbound at 5 h (in vitro) | also measured |
| --- | --- | --- |
| CC(C)NCC(O)COc1cccc2[nH]ccc12 (centres undefined) [PINDOLOL] | 0.586 | logD (physchem [1]; pH 7.4): -0.12 |
| CN(C(=O)Cc1ccc(S(C)(=O)=O)cc1)C1CCN(Cc2ccc(C(F)(F)F)cc2)CC1 | 0.16 | solubility thermodynamic (physchem [2]): 363 µM (≈ 170 µg/mL) |
| COCCNCc1cccc(CCNC[C@H](O)c2ccc(O)c3[nH]c(=O)sc23)c1 | 0.197 | logD (physchem [1]; pH 7.4, LogD7.4): 0.01 |
| Nc1nc2ccc(C(=O)c3ccccc3)cc2[nH]1 | 0.0736 | logD (physchem [1]; pH 7.4, LogD7.4): 2.29 |
| COc1cc(-n2cnc3cc(-c4ccc(Cl)cc4)sc3c2=O)ccc1OCCN1CCCC1 | 0.0099 | logD (physchem [1]; pH 7.4, LogD7.4): 2.74 |
| O=C(CC1CCCCCC1)Nc1cccc2c(=O)n([C@H]3CCNC3)ccc12 | 0.232 | logD (physchem [1]; pH 7.4, LogD7.4): 1.15 |
| N#Cc1ccc2[nH]c(-c3ccc(F)cc3)c(CCCC(=O)NS(=O)(=O)C(F)(F)F)c2c1 | 0.0661 | solubility thermodynamic (physchem [2]): 309 µM (≈ 140 µg/mL) |
| CCc1nn(C2CCCC2)c2c1CCn1c(-c3cccs3)nnc1-2 [TOFIMILAST] | 0.0477 | solubility thermodynamic (physchem [2]): 22.4 µM (≈ 7.6 µg/mL) |
| C[C@@H]1c2c([nH]c3ccc(C(F)(F)F)cc23)C[C@@H]2CCN(CCN3CCOCC3)C[C@H]21 | 0.0313 | logD (physchem [1]; pH 7.4, LogD7.4): 2.87 |
| O=c1[nH]c2c(O)ccc([C@@H](O)CNCCCOCCOCCc3ccccc3)c2s1 | 0.465 | logD (physchem [1]; pH 7.4, LogD7.4): 1.09 |
| CC[C@H](NC(=O)c1c(O)c(-c2ccccc2)nc2ccccc12)c1ccccc1 [TALNETANT] | 0.0005 | logD (physchem [1]; pH 7.4, LogD7.4): 3.91 |
| OCCNC(=S)NCc1cccc(Cl)c1F | 0.16 | – |
| C[C@@H](O[C@H]1OCCN(Cc2n[nH]c(=O)[nH]2)[C@H]1c1ccc(F)cc1)c1cc(C(F)(F)F)cc(C(F)(F)F)c1 [APREPITANT] | 0.0023 | – |
| CC(=O)N1CCN(c2nc(NCC(C)c3ccc(Cl)cc3)c3c(n2)C(=O)N(C(C)C)C3)CC1 (centres undefined) | 0.142 | – |
| COc1cc(F)c(C(C)C)cc1-c1ccc(C(F)(F)F)cc1CN1C(=O)O[C@H](c2cc(C(F)(F)F)cc(C(F)(F)F)c2)[C@@H]1C [ANACETRAPIB] | 0.0328 | – |
| CC(C(=O)O[C@@H]1CC[N+](C)(C)C1)(c1ccccc1)C1CCCC1 (some centres undefined) | 0.299 | – |
| C[C@@H](Oc1ccccc1-c1cccc([N+](=O)[O-])c1)C1=NCCN1 | 0.403 | – |
| CC(C)C(NC(=O)c1cc(Cl)ccc1C(F)(F)F)C(=O)c1ccc([N+](=O)[O-])cc1 (centres undefined) | 0.024 | – |
| C[S+]([O-])Cc1ccc(C(=O)Nc2nccnc2C(=O)NCC2CCC2)c2ccccc12 (centres undefined) | 0.0988 | – |
| Cc1csc2c(N3CCN(C(=O)c4ccc(C(C)(C)C)cc4)CC3)ncnc12 | 0.0043 | – |

| Structure (SMILES) | fraction unbound at 5 h (in vitro) | also measured |
| --- | --- | --- |
| O=S(=O)(Nc1ncns1)c1cc(F)c(Oc2ccc(Cl)cc2-c2cn[nH]c2)cc1F | 0.001 | – |
| CCC(C)(C)C(=O)O[C@H]1C[C@@H](C)C=C2C=C[C@H](C)[C@H](CC[C@@H](O)C[C@@H](O)CC(=O)O)[C@H]21 [TENIVASTATIN] | 0.024 | logD (physchem [1]; pH 7.4, LogD7.4): 1.55 |
| N=C(N)c1ccc2[nH]c(-c3n[nH]c(-c4ccccc4)c3O)nc2c1 | 0.119 | – |
| CN1CCC[C@@H]1Cc1c[nH]c2ccc(Nc3ncccc3[N+](=O)[O-])cc12 | 0.387 | – |
| COc1cc(C(C)C)c(Oc2cnc(N)nc2N)cc1I | 0.0383 | – |
| O=C(O)CCc1ccc(NCc2cccc(Oc3ccccc3)c2)cc1 [GW9508] | 0.0052 | logD (physchem [1]; pH 7.4, LogD7.4): 2.1 |
| CC(=O)N[C@@H](Cc1ccccc1)C(=O)N[C@H]1CCCNC(=O)[C@H](CCCNC(=N)N)NC(=O)[C@H](Cc2c[nH]c3ccccc23)NC(=O)[C@@H](CC2CCCCC2)NC(=O)[C@@H]2CCCN2C1=O | 0.163 | – |
| Cc1nc2ccc(NS(=O)(=O)c3ccc(C)c(C)c3)cc2s1 | 0.0024 | – |
| COc1nc(C)nc(Cl)c1N=C1NCCN1 [MOXONIDINE] | 0.886 | – |
| Cc1ccc(-c2nnc(Nc3ccc(C(=O)N(C)C)cc3)c3ccccc23)cc1S(=O)(=O)N(C)C | 0.0209 | – |
| CC(=O)N1CCN(c2nc(N[C@H](C)c3cnc4ccccc4c3)c3c(n2)C(=O)N(C(C)C)C3)CC1 | 0.0119 | – |
| CC(C)(C)OC(=O)NC[C@H]1CC[C@H](CNC(=O)c2cc(-c3ccncc3)nc3ccccc23)CC1 | 0.02 | – |
| Nc1nc2c(c(N3CC[C@@H](N)C3)n1)CCCc1ccccc1-2 | 0.437 | – |
| CC(CN1c2ccccc2Sc2ccccc21)N(C)C (centres undefined) [PROMETHAZINE] | 0.0705 | logD (physchem [1]; pH 7.4, LogD7.4): 2.67 |
| Cc1ccccc1Nc1nc(N)nc(C)c1Br | 0.0752 | – |
| Cc1cc(-n2cnc3ccc(N[C@@H](C)c4ncc(F)cn4)nc32)n[nH]1 | 0.483 | – |
| O=C1Nc2nc(-c3c(O)cccc3OCC3CC3)cc([C@@H]3CCCNC3)c2CO1 | 0.124 | – |
| CC(C)(C)OC(=O)NC[C@H]1CC[C@H](CNC(=O)c2ccnc(-c3ccccc3)c2)CC1 | 0.0095 | – |
| Cc1ccc(S(=O)(=O)N(C)c2ccc3sc(C)nc3c2)cc1 | 0.0067 | – |
| O=S(=O)(Nc1nncs1)c1cc(Cl)c(Oc2ccc(C(F)(F)F)cc2-c2ccnnc2)cc1F [PF-05186462] | 0.02 | logD (physchem [1]; pH 7.4, LogD7.4): 1.15 |

| Structure (SMILES) | fraction unbound at 5 h (in vitro) | also measured |
| --- | --- | --- |
| CN(C)CCn1cc(-c2cc(C(=O)NC[C@H]3CC[C@H](CNC(=O)OC(C)(C)C)CC3)c3ccccc3n2)cn1 | 0.0647 | – |
| N=C(N)c1ccc2nc(-c3cccc(-c4ccccc4)c3O)[nH]c2c1 | 0.0139 | – |
| Cc1ccc(OCC(O)C(C)NC(C)C)c2c1CCC2 (centres undefined) [ZENIDOLOL] | 0.216 | – |
| CC1=C(CC(=O)NCc2ccc(C(=N)N)cc2)C(=O)N(NS(=O)(=O)c2c(C)cccc2Cl)CC1 | 0.54 | – |
| Cc1nc(C(F)(F)F)ccc1C(=O)Nc1ccc(Cl)c(-c2nc3ccccc3[nH]2)c1 | 0.0948 | – |
| C[C@@](O)(C(=O)Nc1ccc(S(C)(=O)=O)cc1Cl)C(F)(F)F | 0.16 | logD (physchem [1]; pH 7.4, LogD7.4): 2.08 |
| CNC(=O)c1ccc(Oc2ccc3c(c2)CCN(C2CCC2)CC3)nc1 [GSK189254] | 0.523 | logD (physchem [1]; pH 7.4, LogD7.4): 1.45 |
| O=C(COc1cccc(Cl)c1)NC1CN(Cc2ccn(-c3ccc(C(F)(F)F)cc3)c2)C1 | 0.0043 | – |
| O=C(Cc1ccc(F)c(C(F)(F)F)c1)Nc1cccc2c(=O)n([C@@H]3CNC[C@H]3O)ccc12 | 0.0948 | logD (physchem [1]; pH 7.4, LogD7.4): 1.33 |
| O=[N+]([O-])c1c(Nc2ccc(-n3cncn3)cc2)ncnc1N1CCC(Sc2ccccn2)CC1 | 0.0029 | – |
| CC(=O)N1CCN(c2nc3c(c(N(C)Cc4cc5ccccc5cn4)n2)CN(C(C)C)C3=O)CC1 | 0.339 | – |
| CCCC(=O)Nc1ccc(Cl)c(-c2nc3ncccc3o2)c1 | 0.0358 | – |
| O=C(O)Cc1cn(-c2ccccc2)nc1-c1ccc(Cl)cc1 [LONAZOLAC] | 0.0018 | – |
| O=C(c1ccc(-c2ccc(Cl)cc2)o1)N(Cc1ccccn1)c1ccc(N2CCNCC2)cc1 | 0.0219 | logD (physchem [1]; pH 7.4, LogD7.4): 3 |
| CC(=O)N1CCN(c2nc(NCc3ccc(OC(F)(F)F)cc3)c3c(n2)C(=O)N(C(C)C)C3)CC1 | 0.151 | – |
| O=C(c1cc(Cc2n[nH]c(=O)c3ccccc23)ccc1F)N1CCCNCC1 | 0.597 | logD (physchem [1]; pH 7.4, LogD7.4): 0.1 |
| NCCCCN(Cc1nc2ccccc2[nH]1)C1CCCc2cccnc21 (centres undefined) | 0.371 | logD (physchem [1]; pH 7.4, LogD7.4): 0.83 |
| O=C(O)c1cc(O)cc(O)c1 [3,5-DIHYDROXYBENZOIC ACID] | 0.824 | – |
